Data taken from ChEMBL document CHEMBL1201862, “PubChem BioAssay data set” (2004).
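96-well plates; 48 h exposure; 5 concentrations. Endpoints by linear interpolation between flanking doses. Not reached: highest tested concentration assigned. Abbreviation: GI50, concentration required for 50% inhibition of growth.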 Activity calls are given as the source filed them. Rule as the data show it: active = GI50 up to about 1.1 µM and inactive = higher.

What was measured:
Assay in all cases: NCI tumour cell line growth inhibition, 48 h
786-0 = test system: 786-0
A498 = test system: A498
A549 = test system: A549
ACHN = test system: ACHN
BT-549 = test system: BT-549
CAKI-1 = test system: CAKI-1
CCRF-CEM = test system: CCRF-CEM
COLO 205 = test system: COLO 205
DU-145 = test system: DU-145
EKVX = test system: EKVX
HCC 2998 = test system: HCC 2998
HCT-116 = test system: HCT-116
HCT-15 = test system: HCT-15
HL-60 = test system: HL-60
HOP-62 = test system: HOP-62
HOP-92 = test system: HOP-92
HT-29 = test system: HT-29
Hs-578T = test system: Hs-578T
IGROV-1 = test system: IGROV-1
K562 = test system: K562
KM12 = test system: KM12
M14 = test system: M14
MCF7 = test system: MCF7
MDA-MB-231 = test system: MDA-MB-231
MDA-MB-435 = test system: MDA-MB-435
MDA-N = test system: MDA-N
MOLT-4 = test system: MOLT-4
Malme-3M = test system: Malme-3M
NCI-H226 = test system: NCI-H226
NCI-H23 = test system: NCI-H23
NCI-H460 = test system: NCI-H460
NCI-H522 = test system: NCI-H522
NCI/ADR-RES = test system: NCI/ADR-RES
OVCAR-3 = test system: OVCAR-3
OVCAR-4 = test system: OVCAR-4
OVCAR-5 = test system: OVCAR-5
OVCAR-8 = test system: OVCAR-8
RPMI-8226 = test system: RPMI-8226
SF-268 = test system: SF-268
SF-295 = test system: SF-295
SF-539 = test system: SF-539
SK-MEL-28 = test system: SK-MEL-28
SK-MEL-2 = test system: SK-MEL-2
SK-MEL-5 = test system: SK-MEL-5
SK-OV-3 = test system: SK-OV-3
SN12C = test system: SN12C
SNB-19 = test system: SNB-19
SNB-75 = test system: SNB-75
SR = test system: SR
T47D = test system: T47D
TK-10 = test system: TK-10
U-251 = test system: U-251
UACC-257 = test system: UACC-257
UACC-62 = test system: UACC-62
UO-31 = test system: UO-31
LOX IMVI = test system: LOX IMVI
RXF 393 = test system: RXF 393
SW-620 = test system: SW-620

Question: CN(C)CC1CCC/C(=C\c2ccc(Cl)c(Cl)c2)C1=O (stereo unspecified) was tested. Which GI50 (786-0) did it give?
Answer: 1.75 µM (inactive)

Question: What about the GI50 (A498) of the same compound?
Answer: 13.9 µM (inactive)

Question: What about the GI50 (A549) of the same compound?
Answer: 15.1 µM (inactive)

Question: And the GI50 (ACHN)?
Answer: 4.18 µM (inactive)

Question: What about the GI50 (BT-549) of the same compound?
Answer: 2.33 µM (inactive)

Question: And the GI50 (CAKI-1)?
Answer: 2.59 µM (inactive)

Question: And the GI50 (CCRF-CEM)?
Answer: 0.843 µM (active)

Question: And the GI50 (COLO 205)?
Answer: 2.67 µM (inactive)

Question: What about the GI50 (DU-145) of the same compound?
Answer: 10.9 µM (inactive)

Question: And the GI50 (EKVX)?
Answer: 10.8 µM (inactive)

Question: And the GI50 (HCC 2998)?
Answer: 10.7 µM (inactive)

Question: What about the GI50 (HCT-116) of the same compound?
Answer: 1.97 µM (inactive)

Question: What about the GI50 (HCT-15) of the same compound?
Answer: 2.41 µM

Question: And the GI50 (HL-60)?
Answer: 1.97 µM (inactive)

Question: What about the GI50 (HOP-62) of the same compound?
Answer: 9.04 µM (inactive)

Question: What about the GI50 (HOP-92) of the same compound?
Answer: 4.38 µM (inactive)

Question: And the GI50 (HT-29)?
Answer: 8.45 µM (inactive)

Question: And the GI50 (Hs-578T)?
Answer: 2.99 µM (inactive)

Question: And the GI50 (IGROV-1)?
Answer: 3.56 µM (inactive)

Question: What about the GI50 (K562) of the same compound?
Answer: 1.93 µM (inactive)

Question: What about the GI50 (KM12) of the same compound?
Answer: 1.84 µM (inactive)

Question: And the GI50 (M14)?
Answer: 3.83 µM (inactive)

Question: What about the GI50 (MCF7) of the same compound?
Answer: 1.64 µM (inactive)

Question: And the GI50 (MDA-MB-231)?
Answer: 4.65 µM (inactive)

Question: And the GI50 (MDA-MB-435)?
Answer: 6.38 µM (inactive)

Question: What about the GI50 (MDA-N) of the same compound?
Answer: 3.42 µM (inactive)

Question: What about the GI50 (MOLT-4) of the same compound?
Answer: 1.44 µM (inactive)

Question: And the GI50 (Malme-3M)?
Answer: 4.42 µM (inactive)

Question: And the GI50 (NCI-H226)?
Answer: 11.4 µM (inactive)

Question: And the GI50 (NCI-H23)?
Answer: 8.45 µM (inactive)

Question: What about the GI50 (NCI-H460) of the same compound?
Answer: 9.2 µM (inactive)

Question: And the GI50 (NCI-H522)?
Answer: 2.13 µM (inactive)

Question: And the GI50 (NCI/ADR-RES)?
Answer: 3.05 µM (inactive)

Question: And the GI50 (OVCAR-3)?
Answer: 4.31 µM (inactive)

Question: What about the GI50 (OVCAR-4) of the same compound?
Answer: 3.05 µM (inactive)

Question: And the GI50 (OVCAR-5)?
Answer: 21 µM (inactive)

Question: And the GI50 (OVCAR-8)?
Answer: 3.18 µM (inactive)

Question: What about the GI50 (RPMI-8226) of the same compound?
Answer: 0.205 µM (active)

Question: And the GI50 (SF-268)?
Answer: 4.04 µM (inactive)

Question: What about the GI50 (SF-295) of the same compound?
Answer: 12.4 µM (inactive)

Question: What about the GI50 (SF-539) of the same compound?
Answer: 5.2 µM (inactive)

Question: What about the GI50 (SK-MEL-28) of the same compound?
Answer: 5.14 µM (inactive)

Question: And the GI50 (SK-MEL-2)?
Answer: 6.52 µM (inactive)

Question: What about the GI50 (SK-MEL-5) of the same compound?
Answer: 9.82 µM (inactive)

Question: What about the GI50 (SK-OV-3) of the same compound?
Answer: 6.78 µM (inactive)

Question: And the GI50 (SN12C)?
Answer: 3.42 µM (inactive)

Question: And the GI50 (SNB-19)?
Answer: 7.23 µM (inactive)

Question: And the GI50 (SNB-75)?
Answer: 7.41 µM (inactive)

Question: And the GI50 (SR)?
Answer: 1.08 µM (active)

Question: What about the GI50 (T47D) of the same compound?
Answer: 2.31 µM (inactive)

Question: What about the GI50 (TK-10) of the same compound?
Answer: 3.31 µM (inactive)

Question: And the GI50 (U-251)?
Answer: 2.65 µM (inactive)

Question: What about the GI50 (UACC-257) of the same compound?
Answer: 7.71 µM (inactive)

Question: What about the GI50 (UACC-62) of the same compound?
Answer: 3.61 µM (inactive)

Question: And the GI50 (UO-31)?
Answer: 2.74 µM (inactive)

Question: What does the source list for O=C1/C(=C\c2cccc(Oc3ccccc3)c2)SC(c2ccccc2)N1c1ccccc1Cl (stereo unspecified)?
Answer: GI50 (786-0): 25.6 µM (inactive); GI50 (A498): 46.1 µM (inactive); GI50 (A549): 37.5 µM (inactive); GI50 (ACHN): 39.6 µM (inactive); GI50 (BT-549): 21.3 µM (inactive); GI50 (CAKI-1): 34 µM (inactive); GI50 (CCRF-CEM): 6.87 µM (inactive); GI50 (COLO 205): 21.8 µM (inactive); GI50 (DU-145): 32.9 µM (inactive); GI50 (EKVX): 28.8 µM (inactive); GI50 (HCC 2998): 17.5 µM (inactive); GI50 (HCT-116): 14.9 µM (inactive); GI50 (HCT-15): 41.9 µM; GI50 (HL-60): 30.2 µM (inactive); GI50 (HOP-62): 28.8 µM (inactive); GI50 (HOP-92): 14.6 µM (inactive); GI50 (HT-29): 19.7 µM (inactive); GI50 (Hs-578T): 16.5 µM (inactive); GI50 (K562): 23 µM (inactive); GI50 (KM12): 23 µM (inactive); GI50 (LOX IMVI): 22.2 µM (inactive); GI50 (M14): 30.8 µM (inactive); GI50 (MCF7): 28.1 µM (inactive); GI50 (MDA-MB-231): 30.3 µM (inactive); GI50 (MDA-MB-435): 23.3 µM (inactive); GI50 (MDA-N): 20 µM (inactive); GI50 (MOLT-4): 34.8 µM (inactive); GI50 (Malme-3M): 33.6 µM (inactive); GI50 (NCI-H226): 26.2 µM (inactive); GI50 (NCI-H23): 17.5 µM (inactive); GI50 (NCI-H460): 29.6 µM (inactive); GI50 (NCI-H522): 13.6 µM (inactive); GI50 (NCI/ADR-RES): 27.9 µM (inactive); GI50 (OVCAR-3): 23.7 µM (inactive); GI50 (OVCAR-4): 37.1 µM (inactive); GI50 (OVCAR-5): 76 µM (inactive); GI50 (OVCAR-8): 21.9 µM (inactive); GI50 (RPMI-8226): 13 µM (inactive); GI50 (RXF 393): 20.8 µM (inactive); GI50 (SF-268): 33 µM (inactive); GI50 (SF-295): 33.8 µM (inactive); GI50 (SF-539): 19.1 µM (inactive); GI50 (SK-MEL-28): 41.2 µM (inactive); GI50 (SK-MEL-2): 27.9 µM (inactive); GI50 (SK-MEL-5): 15.1 µM (inactive); GI50 (SK-OV-3): 25.4 µM (inactive); GI50 (SN12C): 26 µM (inactive); GI50 (SNB-19): 24.4 µM (inactive); GI50 (SR): 19.3 µM (inactive); GI50 (SW-620): 33.3 µM (inactive); GI50 (T47D): 27.7 µM (inactive); GI50 (TK-10): 34.8 µM (inactive); GI50 (U-251): 16.4 µM (inactive); GI50 (UACC-257): 24.5 µM (inactive); GI50 (UACC-62): 25.5 µM (inactive); GI50 (UO-31): 31 µM (inactive)
